Experimental data published in US20260001875A1, “AMINOPYRIMIDINYL DERIVATIVES FOR THE TREATMENT OF PARKINSON'S DISEASE” (UNIVERSITY OF DUNDEE, priority 2022, published 2026).
Entries after “also recorded” stand apart in the source; their conditions may differ. Like-named read-outs stand apart in the source and are kept apart here.

What was measured:
LRRK2^WT [1] = molecular target: T1, LRRK2^WT (Mus musculus, UniProt Q5S006); experiment: Western blot LRRK2 degradation in WT MEFs; format: cell-based; settings: for DC50 / Dmax on WT MEFs / Dmax: dose response; for Dmax: read-out: Dmax on WT MEFs
T1 construct: endogenous in cells; host or cells: primary wild-type mouse embryonic fibroblasts (MEFs)
T1 sequence (Q5S006 whole entry): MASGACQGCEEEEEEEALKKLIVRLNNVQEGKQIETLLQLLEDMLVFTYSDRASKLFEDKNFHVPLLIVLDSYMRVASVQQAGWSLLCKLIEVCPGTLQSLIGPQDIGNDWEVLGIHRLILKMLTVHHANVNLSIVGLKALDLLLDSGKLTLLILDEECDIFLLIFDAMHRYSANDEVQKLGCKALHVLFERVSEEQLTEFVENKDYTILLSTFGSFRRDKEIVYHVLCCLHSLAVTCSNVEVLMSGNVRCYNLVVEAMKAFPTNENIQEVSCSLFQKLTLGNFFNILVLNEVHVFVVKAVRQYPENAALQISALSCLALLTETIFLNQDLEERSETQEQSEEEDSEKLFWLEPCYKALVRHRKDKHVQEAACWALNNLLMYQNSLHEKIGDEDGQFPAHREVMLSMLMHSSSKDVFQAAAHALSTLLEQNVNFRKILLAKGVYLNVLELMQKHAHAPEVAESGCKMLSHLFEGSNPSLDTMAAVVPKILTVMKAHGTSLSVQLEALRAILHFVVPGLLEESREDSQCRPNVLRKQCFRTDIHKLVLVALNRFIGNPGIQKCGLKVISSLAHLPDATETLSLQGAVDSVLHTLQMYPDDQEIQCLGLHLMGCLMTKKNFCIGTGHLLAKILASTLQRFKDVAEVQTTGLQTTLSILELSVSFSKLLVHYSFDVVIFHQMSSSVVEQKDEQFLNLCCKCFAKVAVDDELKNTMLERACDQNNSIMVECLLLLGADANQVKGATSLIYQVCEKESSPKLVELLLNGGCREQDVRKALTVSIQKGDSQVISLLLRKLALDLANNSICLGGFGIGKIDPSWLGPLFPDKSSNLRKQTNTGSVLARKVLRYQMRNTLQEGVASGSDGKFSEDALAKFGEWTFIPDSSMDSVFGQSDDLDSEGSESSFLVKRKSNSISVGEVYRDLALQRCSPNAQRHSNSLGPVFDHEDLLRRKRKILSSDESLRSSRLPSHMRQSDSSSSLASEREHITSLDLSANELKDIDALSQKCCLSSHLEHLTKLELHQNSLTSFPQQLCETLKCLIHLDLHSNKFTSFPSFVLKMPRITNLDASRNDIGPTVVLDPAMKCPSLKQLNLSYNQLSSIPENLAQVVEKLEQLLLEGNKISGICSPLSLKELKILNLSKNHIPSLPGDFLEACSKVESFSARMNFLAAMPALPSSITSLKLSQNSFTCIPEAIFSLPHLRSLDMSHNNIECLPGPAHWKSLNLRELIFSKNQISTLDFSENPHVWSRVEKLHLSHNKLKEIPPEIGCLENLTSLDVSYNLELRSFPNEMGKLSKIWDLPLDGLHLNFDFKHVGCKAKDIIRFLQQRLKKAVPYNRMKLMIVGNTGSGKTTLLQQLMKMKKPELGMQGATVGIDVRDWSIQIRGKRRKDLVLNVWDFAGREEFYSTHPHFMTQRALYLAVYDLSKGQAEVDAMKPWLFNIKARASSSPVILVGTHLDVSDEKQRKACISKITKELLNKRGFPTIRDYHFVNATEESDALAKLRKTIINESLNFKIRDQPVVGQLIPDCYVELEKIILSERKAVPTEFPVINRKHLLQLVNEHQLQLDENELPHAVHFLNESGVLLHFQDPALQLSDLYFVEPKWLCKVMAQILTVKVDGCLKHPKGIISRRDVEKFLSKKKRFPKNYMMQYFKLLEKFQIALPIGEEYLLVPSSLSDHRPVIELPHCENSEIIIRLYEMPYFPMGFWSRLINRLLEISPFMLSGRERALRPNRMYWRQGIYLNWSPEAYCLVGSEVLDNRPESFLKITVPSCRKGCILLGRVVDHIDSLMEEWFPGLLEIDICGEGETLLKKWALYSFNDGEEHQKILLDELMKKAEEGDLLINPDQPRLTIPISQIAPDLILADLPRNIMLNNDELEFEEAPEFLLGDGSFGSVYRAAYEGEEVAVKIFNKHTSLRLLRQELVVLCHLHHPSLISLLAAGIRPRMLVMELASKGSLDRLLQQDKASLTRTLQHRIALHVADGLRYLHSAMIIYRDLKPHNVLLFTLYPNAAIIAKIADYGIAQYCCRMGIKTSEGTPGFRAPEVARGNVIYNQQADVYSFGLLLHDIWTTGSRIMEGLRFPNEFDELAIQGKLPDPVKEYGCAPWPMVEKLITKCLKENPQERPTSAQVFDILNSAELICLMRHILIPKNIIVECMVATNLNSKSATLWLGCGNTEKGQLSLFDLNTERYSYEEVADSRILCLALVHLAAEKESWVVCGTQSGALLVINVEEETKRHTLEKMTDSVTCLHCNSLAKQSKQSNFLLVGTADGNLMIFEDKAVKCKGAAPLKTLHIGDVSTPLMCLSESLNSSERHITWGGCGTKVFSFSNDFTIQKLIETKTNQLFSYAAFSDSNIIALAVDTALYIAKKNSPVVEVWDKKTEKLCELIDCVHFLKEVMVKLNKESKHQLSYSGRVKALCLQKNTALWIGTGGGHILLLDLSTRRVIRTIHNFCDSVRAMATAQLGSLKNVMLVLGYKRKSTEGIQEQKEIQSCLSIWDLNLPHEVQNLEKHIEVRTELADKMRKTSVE

LRRK2^WT [2] = experiment: Western blot LRRK2 degradation in WT MEFs; format: cell-based, mouse; settings: for LRRK2 degradation (in words): WT MEFs and LRRK2^G2019S MEFs
LRRK2 pSer935 = experiment: LRRK2 Ser935 dephosphorylation (immunoblot) in WT MEFs; format: cell-based, mouse; settings: for EC50: Mus musculus, dose response, read-out: WT MEFs pSer935 LRRK2-dephosphrylation EC50; for T1/2 WT-pSer935-LRRK2: WT MEFs
Experimental: Western blot degradation assays for the LRRK2 protacs were performed with WT and PD-associated LRRK2 [G2019S] mouse embryonic fibroblasts (MEFs). The second-generation PROTACs were tested in parallel with the first generation PROTACs SD75, SD82, and SD100. The compounds were tested at 33 nM or […] concentrations for 4 hours or 24 hours, running two biological replicates per condition and achieving quantifications representative of both replicates. Analysis by quantitative immunoblotting was performed with readouts of the total LRRK2 (antibody recognizes epitope in C-terminus of protein), Rab10 pThr73 (physiological substrate) and LRRK2 pSer935 (biomarker phosphorylation site).
Primary MEFs were generated as described in a previous study (Wiggin et al., Mol. Cell Biol. 2002 April; 22(8):2871-81.). Briefly, the uterine horn was collected from adult female mice at day E12.5 and transferred to a 10 cm tissue culture dish containing cold PBS. Two forceps were used to tear the yolk sacs to isolate each embryo. Forceps were cleaned thoroughly with 70% ethanol between each embryo isolation. The embryos were culled, and a tissue piece was collected in a PCR tube for genotyping. The red tissue of the embryo, which grows to become the heart and liver, was removed. The remainder of the embryo was minced with a scalpel blade and incubated with 7.5 ml trypsin-EDTA solution for 10 minutes in a 37° C. tissue culture CO2 incubator. The dish was removed from the incubator and checked under a light microscope for single cells. 7.5 ml complete media was added to the trypsinised cells, and the cell suspension was transferred to a 15 ml Falcon tube, centrifuged at 1200 rpm for 5 minutes at room temperature. The trypsin was aspirated, the cell pellet was resuspended in 5 ml fresh complete media, and the cell suspension was plated in a 60 mm tissue culture dish and incubated in a 37° C., 5% CO2 tissue culture incubator. The MEFs at this stage were considered as passage 0 and were passaged and expanded for experimental use once the genotype was confirmed by allelic sequencing and immunoblotting. MEFs were cultured in Dulbecco's modified Eagle medium (DMEM) containing 10% (v/v) fetal bovine serum (FBS), 2 mM L-glutamine, 100 U/ml penicillin, and 100 μg/ml streptomycin supplemented with 1× non-essential amino acids and 1 mM sodium pyruvate.
Culturing and passaging of adherent cell lines were carried out using aseptic technique in CL1 or CL2 (for PBMC isolation) biological safety cabinets. All cells were incubated in a 37° C. incubator with 5% CO2. Cell lines were regularly tested for mycoplasma contamination. For western blot assay, the cells were seeded in 6-well plates. After treating with testing compounds at indicated concentrations and time period, the media was removed and the cells were washed with PBS and lysed in 100 μl ice-cold complete lysis buffer containing 50 mM Tris-HCl pH 7.4, 1 mM EGTA, 10 mM 2-glycerophosphate, 50 mM sodium fluoride, 5 mM sodium pyrophosphate, 270 mM sucrose, supplemented with 1 μg/ml microcystin-LR, 1 mM sodium orthovanadate, complete EDTA-free protease inhibitor cocktail (Roche) and 1% (v/v) Triton X-100. The cells were immediately placed on ice and were scraped and collected into 1.5 ml Eppendorf tubes. Cell lysates were incubated on ice for 10 minutes prior to centrifugation at 15,000 g at 4° C. for 15 minutes. The cell pellet was discarded, and supernatant was collected for analysis by quantitative immunoblotting. For long term storage, the supernatant was flash frozen and stored at −80° C. Protein concentrations of cell lysates were determined using the Bradford assay.
Cell lysates containing a quarter of a volume of 4× NuPAGE LDS sample buffer (NP0007) supplemented with 5% β-mercaptoethanol, were heated at 95° C. for 5 minutes. […]

Rab10 pThr73 = experiment: Rab10 Thr73 dephosphorylation (immunoblot) in LRRK2^G2019S MEFs; format: cell-based, mouse; settings: for inhibition at 1 µM: read-out: pRab10 inhibited in LRRK2^G2019S MEFs; for EC50: dose response, read-out: G2019S MEFs-pRab10-dephosphorylation EC50
LRRK2 = LRRK2 (Homo sapiens, UniProt Q5S007); experiment: NanoBRET LRRK2 target engagement in HEK293 cells; format: binding; design: host or cells: HEK293; settings: for IC50: read-out: IC50 LRRK2 tracer displacement
LRRK2, sequence (Q5S007 whole entry, the tested form may be a part): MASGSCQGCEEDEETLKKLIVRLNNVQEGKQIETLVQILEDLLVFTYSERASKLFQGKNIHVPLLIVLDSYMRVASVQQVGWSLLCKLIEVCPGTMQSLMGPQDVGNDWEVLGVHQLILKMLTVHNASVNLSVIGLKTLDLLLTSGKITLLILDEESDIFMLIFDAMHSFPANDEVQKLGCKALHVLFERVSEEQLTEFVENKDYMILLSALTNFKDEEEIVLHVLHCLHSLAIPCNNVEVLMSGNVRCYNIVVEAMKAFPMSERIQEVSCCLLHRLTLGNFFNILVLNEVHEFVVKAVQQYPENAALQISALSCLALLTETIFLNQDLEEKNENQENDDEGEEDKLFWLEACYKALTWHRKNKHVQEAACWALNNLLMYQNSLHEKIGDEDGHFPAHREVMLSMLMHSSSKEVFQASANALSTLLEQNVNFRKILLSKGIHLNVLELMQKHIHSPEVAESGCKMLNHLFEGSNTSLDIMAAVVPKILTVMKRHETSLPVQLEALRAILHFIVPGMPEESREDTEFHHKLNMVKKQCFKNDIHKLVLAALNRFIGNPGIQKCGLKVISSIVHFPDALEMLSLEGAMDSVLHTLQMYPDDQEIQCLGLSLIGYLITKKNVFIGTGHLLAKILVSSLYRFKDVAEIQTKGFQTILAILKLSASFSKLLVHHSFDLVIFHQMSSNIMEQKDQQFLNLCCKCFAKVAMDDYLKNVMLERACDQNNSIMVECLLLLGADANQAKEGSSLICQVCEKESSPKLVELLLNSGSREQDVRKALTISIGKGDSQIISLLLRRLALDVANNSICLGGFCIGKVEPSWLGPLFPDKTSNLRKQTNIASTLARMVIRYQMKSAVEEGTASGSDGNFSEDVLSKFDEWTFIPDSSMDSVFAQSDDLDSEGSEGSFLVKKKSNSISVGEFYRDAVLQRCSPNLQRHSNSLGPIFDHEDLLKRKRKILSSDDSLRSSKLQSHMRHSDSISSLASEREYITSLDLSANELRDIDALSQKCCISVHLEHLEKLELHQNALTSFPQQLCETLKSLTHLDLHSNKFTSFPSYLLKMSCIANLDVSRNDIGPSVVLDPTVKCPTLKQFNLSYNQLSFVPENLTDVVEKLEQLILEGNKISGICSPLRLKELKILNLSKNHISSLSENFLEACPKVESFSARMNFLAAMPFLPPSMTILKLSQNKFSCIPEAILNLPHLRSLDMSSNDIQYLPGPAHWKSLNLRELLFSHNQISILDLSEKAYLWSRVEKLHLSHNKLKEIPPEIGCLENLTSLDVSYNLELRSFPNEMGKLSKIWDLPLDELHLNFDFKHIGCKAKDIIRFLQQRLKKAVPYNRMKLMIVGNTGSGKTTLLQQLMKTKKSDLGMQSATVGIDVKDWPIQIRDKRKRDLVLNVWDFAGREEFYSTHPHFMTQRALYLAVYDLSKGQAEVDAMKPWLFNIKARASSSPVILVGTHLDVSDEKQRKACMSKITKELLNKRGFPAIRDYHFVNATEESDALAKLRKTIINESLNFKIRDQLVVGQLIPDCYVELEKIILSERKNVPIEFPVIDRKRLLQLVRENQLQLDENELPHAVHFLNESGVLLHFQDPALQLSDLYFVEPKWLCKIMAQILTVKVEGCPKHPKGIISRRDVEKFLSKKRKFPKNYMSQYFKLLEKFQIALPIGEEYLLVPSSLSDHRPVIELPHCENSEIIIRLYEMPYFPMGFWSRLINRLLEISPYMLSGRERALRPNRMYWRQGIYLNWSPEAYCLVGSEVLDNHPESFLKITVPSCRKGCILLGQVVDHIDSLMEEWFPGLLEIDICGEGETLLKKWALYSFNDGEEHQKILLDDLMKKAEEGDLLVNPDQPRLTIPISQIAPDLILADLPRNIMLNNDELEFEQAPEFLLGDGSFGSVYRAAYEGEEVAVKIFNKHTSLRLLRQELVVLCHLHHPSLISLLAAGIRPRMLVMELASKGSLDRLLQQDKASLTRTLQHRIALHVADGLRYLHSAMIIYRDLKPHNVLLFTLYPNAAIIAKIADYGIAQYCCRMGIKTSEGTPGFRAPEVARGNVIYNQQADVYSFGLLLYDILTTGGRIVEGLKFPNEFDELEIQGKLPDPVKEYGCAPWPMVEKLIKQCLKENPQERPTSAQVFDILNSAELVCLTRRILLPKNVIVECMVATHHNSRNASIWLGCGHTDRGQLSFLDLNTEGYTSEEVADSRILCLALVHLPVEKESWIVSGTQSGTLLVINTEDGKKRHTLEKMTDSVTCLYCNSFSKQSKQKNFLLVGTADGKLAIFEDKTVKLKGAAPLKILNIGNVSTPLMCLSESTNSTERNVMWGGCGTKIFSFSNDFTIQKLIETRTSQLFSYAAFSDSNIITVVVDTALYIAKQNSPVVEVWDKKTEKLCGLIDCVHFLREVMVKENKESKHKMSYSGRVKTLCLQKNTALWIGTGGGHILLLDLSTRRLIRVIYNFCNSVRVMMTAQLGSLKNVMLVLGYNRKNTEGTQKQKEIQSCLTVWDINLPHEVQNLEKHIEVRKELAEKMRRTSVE
Experimental: For VHL and LRRK2 target engagement experiments in live and permeabilized cells, the HEK293 cells were transfected with VHL-NanoLuc fusion vector (Promega, N275A) or LRRK2-NanoLuc fusion vector (Promega, NV3401) following Promega's protocol and seeded into white 384-well plate (Corning3570) at a density of 6000 cells/well. To measure NanoBRET in permeabilized cells, the cells were treated with 50 μg/mL digitonin (Sigma, D141), 125 nM VHL tracer/125 nM LRRK2 tracer, testing compounds at decreasing concentrations (12 concentrations with 2-fold serial dilution starting from 33 μM), and NanoBRET NanoGlo Substrate (Promega) at concentration recommended by the manufacturer's protocol. In the maximum signal control samples (DMSO control), DMSO was added instead of testing compounds. In the minimum signal control samples (no tracer control), DMSO and tracer dilution buffer were used to replace testing compounds and tracer separately. The filtered luminescence was measured within 10 min following addition of the substrate on a GloMax Discover microplate reader (Promega) or a PHERAstar (BMG LABTECH) plate reader equipped with a 450-nm bandpass filter (donor) and a 600-nm long pass filter (acceptor). To measure NanoBRET in live cells, the cells were treated with 250 nM VHL tracer/500 nM LRRK2 tracer, testing compounds at testing compounds at decreasing concentrations (12 concentrations with 2-fold serial dilution starting from 33 μM) and incubated at 37° C. in an incubator for 2 h. The plates were then cooled down and added with NanoBRET NanoGlo Substrate and Extracellular NanoLuc Inhibitor (Promega, N2160) before performing the same NanoBRET reading as the permeabilized mode on plate readers. NanoBRET ratio of each well was expressed in milliBRET according to the equation: mBRET=[(signal at […]/signal at 450 nM)−(signal at 610 nMno tracer control/signal at 450 nMno tracer control)]×1000. The fractional occupancy was calculated according to the equation: fractional occupancy=(mBRETtesting compound−mBRETno tracer control)/(mBRETDMSO control−mBRETno tracer control).

[3] = Mus musculus, 1 μM/4 h treatment
[4] = time course at 300 nM, LRRK2^G2019S MEFs

SMILES | DC50 (LRRK2^WT [1]; 4 h treatment) | Dmax on WT MEFs (LRRK2^WT [1]; 4 h treatment) | Dmax (LRRK2^WT [1]; 4 h treatment) | T1/2 of LRRK2^WT degradation (LRRK2^WT [1]; time course at 300 nM, WT MEFs) | LRRK2 degradation (in words) (LRRK2^WT [2]) | EC50 (LRRK2 pSer935; 4 h treatment) | T1/2 WT-pSer935-LRRK2 (LRRK2 pSer935; time course at 300 nM) | inhibition at 1 µM (Rab10 pThr73; [3]) | EC50 (Rab10 pThr73; Mus musculus, 4 h treatment) | T1/2 of Rab10 dephosphorylation (G2019S) (Rab10 pThr73; [4]) | IC50 (LRRK2; live HEK293 cells) | IC50 (LRRK2; permeabilized HEK293 cells) | other results
CNc1nc(Nc2ccc(C(=O)N3CCN(C[C@H]4CC[C@@H](CSC(C)(C)[C@H](NC(=O)C5(F)CC5)C(=O)N5C[C@H](O)CC5C(=O)NCc5ccc(-c6scnc6C)cc5)CC4)CC3)cc2OC)ncc1Cl (stereo partly shown) [XL01134] | 32 nM | 58% | 59% | 162 min | hook effect | 35 nM | 0.7 h | 20 to 100% | 12 nM | 18 min | 2200 nM | 2000 nM | inhibition at 1 µM (Rab10 pThr73; Mus musculus, 1 μM/24 h treatment): 10 to 100%; Dmax at 0.3 µM (Rab10 pThr73; Mus musculus, time course at 300 nM, LRRK2^G2019S MEFs): 87%
CNc1nc(Nc2ccc(C(=O)N3CCN(CCOCCOCCSC(C)(C)[C@H](NC(=O)C4(F)CC4)C(=O)N4C[C@H](O)C[C@H]4C(=O)NCc4ccc(-c5scnc5C)cc4)CC3)cc2OC)ncc1Cl [SD75, (2S,4R)-1-((R)-3-((2-(2-(2-(4-(4-((5-chloro-4-(methylamino)pyrimidin-2-yl)amino)-3-methoxybenzoyl)piperazin-1-yl)ethoxy)ethoxy)ethyl)thio)-2-(1-fluorocyclopropane-1-carboxamido)-3-methylbutanoyl)-4-hydroxy-N-(4-(4-methylthiazol-5-yl)benzyl)pyrrolidine-2-carboxamide] | – | – | – | – | moderate LRRK2 degradation; also recorded: partial LRRK2 degradation | – | – | 30 to 95% | – | – | 1800 nM | 780 nM | Dmax on WT MEFs (LRRK2^WT [1]; 24 h treatment): 50%; T1/2 of LRRK2^WT degradation (LRRK2^WT [1]; time course at 1000 nM, WT MEFs): 306 min; Selectivity Index (pSer935-LRRK2 dephosphorylation, WT vs G2019S MEFs) (LRRK2 pSer935; 24 h): 2.7; EC50 (LRRK2 pSer935; 24 h treatment): 745 nM; T1/2 WT-pSer935-LRRK2 (LRRK2 pSer935; time course at 1000 nM): 3.6 h; Dmax at 1 µM (Rab10 pThr73; Mus musculus, time course at 1000 nM, LRRK2^G2019S MEFs): 74%; EC50 (Rab10 pThr73; 24 h treatment): 379 nM; T1/2 of Rab10 dephosphorylation (G2019S) (Rab10 pThr73; time course at 1000 nM, LRRK2^G2019S MEFs): 42 min; IC50 ratio IC50, per/IC50, live (LRRK2 engagement) (LRRK2; permeabilized vs live mode): 0.43
CNc1nc(Nc2ccc(C(=O)N3CCN(C[C@H]4CC[C@H](CSC(C)(C)[C@H](NC(=O)C5(F)CC5)C(=O)N5C[C@H](O)CC5C(=O)NCc5ccc(-c6scnc6C)cc5)CC4)CC3)cc2OC)ncc1Cl (stereo partly drawn) [XL01126, (2S,4R)-1-((R)-3-((((1R,4R)-4-((4-(4-((5-chloro-4-(methylamino)pyrimidin-2-yl)amino)-3-methoxybenzoyl)piperazin-1-yl)methyl)cyclohexyl)methyl)thio)-2-(1-fluorocyclopropane-1-carboxamido)-3-methylbutanoyl)-4-hydroxy-N-(4-(4-methylthiazol-5-yl)benzyl)pyrrolidine-2-carboxamide] | 32 nM | 80-90% | 82% | 72 min | almost complete LRRK2 degradation | 18 nM | 0.6 h | – | 15 nM | 18 min | 1400 nM | – | Dmax at 0.3 µM (LRRK2^WT [1]; time course at 300 nM, WT MEFs): 82%; mechanism of induced LRRK2 degradation (in words) (LRRK2^WT [2]; pretreatment with VH101, MLN4924, MG132, WT and LRRK2^G2019S MEFs): dependent on the proteasome pathway; LRRK2 tracer displacement (in words) (LRRK2; permeabilized HEK293 cells): poor displacement
